# Data published in PubChem BioAssay AID651717 (Broad Institute, 2012).
# Tested on: mESC Bmi1-luciferase reporter, firefly/renilla ratio, 24 h
# Experiment: compounds raising Bmi1 reporter signal – mouse embryonic stem cells, luciferase, cherry-pick, esBAF inhibitor project, dose response (AID 651717);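 also: luciferase knocked into Bmi1 locus with EF-1a renilla as cell number control; rising ratio signals esBAF inhibition which derepresses Bmi1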
row,SMILES,AC40
1,Cc1ccn2c(CC(C)(C)C)c(-c3ccc(F)cc3)nc2c1,1.38 µM
2,COc1ccc(NC(=O)c2cc(F)cc(F)c2)cc1Cl,4.77 µM
3,CC(=O)Nc1ccc2c(c1Br)Cc1ccccc1-2,2.53 µM
4,Cn1c(/C(C#N)=C(\O)c2ccc(Cl)s2)nc2ccccc21,3.09 µM
5,c1ccc(-c2nc3c(ccc4ccccc43)[nH]2)nc1,0.96 µM
6,O=C(Nc1ccc(Cl)c(Cl)c1)Nc1ccccc1O,1.14 µM
7,Cc1ccc(C)c(N2CCN(C(=O)CCc3nc(-c4cccc(Cl)c4)no3)CC2)c1,2.83 µM
8,COc1ccc([C@@H](C)NC(=O)c2ccc3oc(C(C)C)nc3c2)cc1,9.81 µM
9,CC(=O)c1sc(Nc2ccc(Oc3ccccc3)cc2)nc1C,2.08 µM
10,Cc1sc(NC(=O)c2cccs2)nc1-c1ccccc1,5.47 µM
11,CN(C)c1ccc(C=NN2CCCCCC2)cc1,< 0.26 µM
12,Cc1ccnc(NC(=O)c2ccc(OCc3c(C)noc3C)cc2)c1,3.44 µM
13,CCn1c(O)c(/C=C2\C=Nc3ccccc32)sc1=Nc1ccccc1,14.2 µM
14,Oc1ccc(/C=N/Nc2nc(-c3cccnc3)nc3ccccc23)c(O)c1,11.2 µM
15,COc1cc(/C=C/c2ccccc2)cc(OC)c1,2.93 µM
16,COc1cc2ccccc2cc1C(=O)Nc1ccc(Br)cn1,0.489 µM
17,O=C(NC1CCCC1)c1cc(-c2ccccc2O)on1,1.65 µM
18,O=C(NN=Cc1ccc2c(c1)CCC2)c1ccccc1O,2.45 µM
19,CCCC(=O)Nc1sc2c(c1C#N)CCCCC2,2.39 µM
20,Cc1ccc(NC(=O)O/N=C/c2ccc(N(C)C)cc2)cc1,16.6 µM
21,CC(C)(C)NC(=O)Cn1nnc(-c2ccccc2Cl)n1,5.29 µM
22,CCN1C(=O)C(=CC=CN(C)c2ccccc2)SC1=S,0.466 µM
23,COC(=O)c1sc(Nc2ccccc2)nc1C,4.18 µM
24,CCN(C(=O)c1cc2c(=O)n3cccc(C)c3nc2s1)C1CCCCC1,25.1 µM
25,Cc1ccc(Nc2ncnc3sc(C)c(C)c23)cc1,3.76 µM

row,SMILES,AC40
1,Cc1nc(-c2ccc(Cl)cc2)sc1C1(C)CC(c2cccnc2)=NO1 (stereo not drawn),5.57 µM
2,Cc1cc(=O)oc2cc(NC(=O)c3cccc(F)c3)ccc12,1.82 µM
3,O=C(Nc1ccc(SC(F)F)cc1)C12CCC(CC1)C2,5.66 µM
4,O=C(Cn1c(/C=C/c2ccccc2)nc2ccccc21)Nc1ccc(F)cc1,2.78 µM
5,CCCCN1C(=S)NC[C@@H]1Cc1cccc2ccccc12,17.3 µM
6,CCOc1ccc2nc(NC(=O)CSc3nnc(-c4ccncc4)n3CC3CCCO3)sc2c1 (stereo not drawn),7.34 µM
7,O=C(CCc1nnc(CCc2c[nH]c3ccccc23)o1)NC1CCC1,4.41 µM
8,COc1ccccc1CNC(=O)C[C@H]1CC[C@H]2[C@@H](COC[C@@H](O)CN2C(=O)Nc2ccc(Cl)cc2)O1,1.05 µM
9,Cc1cccc(C)c1OCc1cc(C(=O)N2CCC(C3CCCCC3)C2)no1 (stereo not drawn),4.72 µM
10,COc1ccc2nc3sc(C(=O)NCCN4CCc5ccccc5C4)cc3cc2c1,5.77 µM
11,O=C(CCNS(=O)(=O)c1cccs1)N1CCc2ccccc2C1,6.72 µM
12,COc1ccccc1NC(=O)Cn1nnc(-c2ccccc2NC(=O)c2cc3ccccc3oc2=O)n1,4.5 µM
13,O=C(Nc1ccc2c(c1)OCO2)c1cnc(Cl)c(Cl)c1,1.74 µM
14,N#Cc1ccc(C=NN2CCCCCC2)cc1,2.62 µM
15,Cc1ccc(NC(=O)C2CCCN(c3ncccn3)C2)cc1F (stereo not drawn),1.16 µM
16,CS(=O)(=O)c1ccc2nc(NC(=O)c3ccccc3Br)sc2c1,6.16 µM
17,Oc1cccc(/C=N/N2CCCCC2)c1O,3.47 µM
18,FC(F)(F)c1ccccc1Cc1c(-c2cccc(Br)c2)nc2c3ccccc3ccn12,9.57 µM
19,Cc1sc2nc(-c3ccc(Br)cc3)oc(=O)c2c1C,1.61 µM
20,C=CCNc1nc(NCc2ccc(NC(C)=O)cc2)c2sc(-c3ccccc3)cc2n1,0.635 µM
21,COc1ccc(-c2nnn(Cc3ccccc3)n2)cc1,0.621 µM
22,Nc1nc(SCc2ccccc2)sc1C(=O)N1CCCCC1,2.53 µM
23,COc1ccc(-c2csc(C(O)c3ccccc3)n2)cc1 (stereo not drawn),5.06 µM
24,COc1ccc2c(c1OC)C(=O)OC2Nc1nc(-c2cc3cc(Br)ccc3oc2=O)cs1 (stereo not drawn),1.25 µM
25,COc1ccc(C(=O)NCCS(=O)(=O)NCCc2ccccc2)cc1,0.726 µM

row,SMILES,AC40
1,COc1ccc(CNc2nc(NCc3ccc(OC)cc3)n(C(=O)c3ccccc3[N+](=O)[O-])n2)cc1,18.8 µM
2,COc1cccc(/C=C2\SC(N3CCCC(C)C3)=NC2=O)c1OC (stereo not drawn),9.58 µM
3,Cc1ccc(C)c(N2CCN(C(=O)CCc3nc(-c4ccccc4C(F)(F)F)no3)CC2)c1,4.63 µM
4,COc1cccc(N2CCN(C(=O)c3ccc4nc(N5CCCCC5)sc4c3)CC2)c1,5.88 µM
5,O=C(Nc1cccc(F)c1)c1c(O)c2ccccc2[nH]c1=O,1.29 µM
6,COc1ccc(Nc2nc(C)c(C(C)=O)s2)cc1,4.13 µM
7,Cc1nc(NCc2ccccc2)sc1C(=O)Nc1ccccc1,8.44 µM
8,Nc1cc2c(cc1Br)-c1ccccc1C2=NO,9.76 µM
9,O=C(NC1CCCCC1)c1ccc(-c2ccccc2)cc1,3.77 µM
10,COc1ccc(-c2cc(C(=O)Nc3ccc(NC(C)=O)cc3)[nH]n2)c(C)c1,1.21 µM
11,Nc1cccc(N=[N+]([O-])c2cccc(N)c2)c1,2.11 µM
12,COc1ccc(-c2cc(C(=O)N3CCN(c4ccccc4)CC3)no2)cc1,5.94 µM
13,CC1CCN(c2oc(-c3cccc4ccccc34)nc2C#N)CC1,2.52 µM
14,COc1cccc(CN(C)C(=O)c2ccc(COc3ccc(Cl)cc3)cc2)c1OC,5.66 µM
15,CC(c1ccccc1)c1nnc(NC(=O)Nc2ccccc2F)s1 (stereo not drawn),6.51 µM
16,Cc1cc2oc(=O)cc(CN3CCC(C)CC3)c2cc1Cl,9.54 µM
17,CC(C)CN1C(=O)c2ccc(C(=O)Nc3nccs3)cc2C1=O,1.98 µM
18,Cc1ccc(OCc2cnc(Cl)s2)c(C)c1,4.12 µM
19,CCn1c(COc2ccccc2C)nc2ccccc21,3.51 µM
20,CC(=O)O/N=C(\N)c1ccc(-c2csnn2)cc1,29.5 µM
21,COc1cc2c(cc1OC)C(=Cc1ccc(N(C)C)cc1)C=C2,2.44 µM
22,COc1cc(CNc2ccc(S(N)(=O)=O)cc2)ccc1OCc1ccccc1F,1.87 µM
23,Nc1ccc2c(c1)Cc1cc(N)c(Cl)cc1-2,3.41 µM
24,Cc1cc(C)cc(N(CC(=O)Nc2ccc(-c3nc4ccc(C)cc4s3)cc2)S(C)(=O)=O)c1,4.11 µM
25,C/C(CC(=O)Nc1ccc(OCc2ccccc2)cc1)=N\NC(=O)C(=O)Nc1ccc(C)c(Cl)c1,1.03 µM

row,SMILES,AC40
1,Cc1ccc(C(=O)CNc2ccccc2)cc1,16.6 µM
2,CCC(=O)c1ccc(N2CCCCCC2)c(F)c1,4.92 µM
3,COc1ccc(CC(=O)Nc2ccc(-c3cn4ccc(C)cc4n3)cc2)cc1,18.8 µM
4,COc1ccc(C(O)c2nc(-c3ccc4ccccc4c3)cs2)cc1 (stereo not drawn),13 µM
5,COc1ccc(Cc2nc3ccc(C(=O)NCCCSC)cc3o2)cc1OC,4.92 µM
6,CC(=O)Nc1ccc2nc(C)n(Cc3ccc(Cl)cc3)c(=O)c2c1,4.21 µM
7,Cc1csc(N/N=C/c2ccccc2F)n1,1.01 µM
8,c1ccc(CCNc2nc3ccccc3s2)cc1,3.14 µM
9,O=c1cc(-c2ccccc2Cl)oc2cc(O)cc(O)c12,12 µM
10,Cc1cccc(NC(=O)c2cc(-c3cc(Cl)ccc3O)n[nH]2)c1,2.08 µM
11,O=C(Nc1ccc2oc(-c3ccccc3)nc2c1)c1cccs1,1.58 µM
12,CCS(=O)(=O)n1nc(-c2ccc(OC)cc2)nc1SC,5.54 µM
13,Cc1cc2nc(N3CCN(C(=O)c4cccs4)CC3)sc2cc1C,1.98 µM
14,Cc1cc(F)ccc1-c1cc(C(=O)Nc2ccc(F)cc2)[nH]n1,0.757 µM
15,CC(=O)Nc1cnc(-c2cc(C)c(O)c(C)c2)cn1,12 µM
16,O=C(c1ccc2ccccc2c1)N1CCN(Cc2ccccc2)CC1,9.83 µM
17,NC(N)=NC(=O)c1nc(Cl)c(N2CCCCCC2)nc1N,3.13 µM
18,CC(C)C(=O)N1CCN(c2nc3ccc(Cl)cc3s2)CC1,3.33 µM
19,COc1ccc(F)cc1-c1cc(C(=O)Nc2cccnc2)[nH]n1,3.06 µM
20,CC1CCCC(C)N1C(=O)c1cc(-c2ccc(Cl)c(Cl)c2)on1 (stereo not drawn),6.88 µM
21,NNC(=O)c1nc2ccccc2s1,4.4 µM
22,CC/C(=N\NC(=O)c1cc(C2CC2)[nH]n1)c1ccccc1,4.25 µM
23,Cc1ccc(C(=O)Nc2ccc(Br)c(C(F)(F)F)c2)cc1,1.73 µM
24,COc1ccc(N2CCN(C(=O)c3ccc(Cn4c(=S)[nH]c5ccc(N6CCOCC6)cc5c4=O)cc3)CC2)cc1,6.15 µM
25,O=C(N/N=C/c1cnc2ccccc2n1)c1cccc(F)c1,4.89 µM

row,SMILES,AC40
1,COc1ccc(C2=Nc3ccccc3NC(=O)C2N(C(=O)c2cnc(C)cn2)c2ccc(N3CCOCC3)cc2)cc1 (stereo not drawn),21.8 µM
2,COC(=O)C(Cc1ccc(OC(=O)c2ccc(Cl)cc2)cc1)N1Cc2ccccc2C1=O (stereo not drawn),3.13 µM
3,CC(NC(=O)c1cc(COc2cccc(C(F)(F)F)c2)on1)c1nccs1 (stereo not drawn),6.45 µM
4,CCn1ccnc1CN(C)C(=O)c1cc(COc2ccccc2SC)on1,8.01 µM
5,Cc1ccc(C)c(NC(=O)c2cc(-c3ccccc3O)n[nH]2)c1,11.5 µM
6,O=C(c1cc2ccccc2oc1=O)N(Cc1cccs1)C1CCS(=O)(=O)C1 (stereo not drawn),3.94 µM
7,COc1cccc(C(=O)Nc2ccc(Cl)c(C(F)(F)F)c2)c1,5.59 µM
8,O=C(Cc1cccs1)Nc1nc2c(s1)CCCC2,1.66 µM
9,Cn1c2nc3ccccc3c-2nc2ccccc21,4.33 µM
10,COC(=O)c1ccc(CN2C(=O)NC3(CCCCC3)C2=O)cc1,7.87 µM
11,CCC(C)(C)C1CCc2[nH]nc(C(=O)NC3CCCCC3)c2C1 (stereo not drawn),6.44 µM
12,COc1ccc(NC(=O)Nc2cc(C)ccc2F)cc1,0.738 µM
13,O=c1c2ccccc2oc2cc(Br)ccc12,7.16 µM
14,COc1ccc(Cc2c(-c3ccccc3)nc3ccc(Br)cn23)c(C)c1,8.9 µM
15,Cc1ccc2c(COC(=O)C34CC5CC(CC(C5)C3)C4)cc(=O)oc2c1,3.95 µM
16,CCC(=O)Nc1cccc(-c2nnc(-c3ccccc3)o2)c1,2.83 µM
17,COc1cc(CNc2ccc(N3CCN(C(C)=O)CC3)cc2)ccc1OCc1ccc(F)cc1,3.93 µM
18,O=C(c1ccncc1)N1N=C(c2ccc(Cl)cc2)CC1c1ccccc1O (stereo not drawn),2.04 µM
19,CC(=O)Oc1ccc2cc(-c3ccccc3)c(=O)oc2c1,4.46 µM
20,COc1ccc2nc3sc(C(=O)NCCCN4CCc5ccccc5C4)cc3cc2c1,11.9 µM
21,CCN(CC)C(=O)OCc1c(-c2ccccc2)ncc2ccccc12,2.25 µM
22,COc1ccc(CNC(=O)Nc2cccc(C)c2)cc1,5.8 µM
23,c1ccc(-c2csc(Nc3cccnc3)n2)nc1,4.74 µM
